In patent US20200207989A1, “FLUORESCENT PROBE FOR ALDH3A1 DETECTION” (The University of Tokyo, priority 2016, published 2020):

Tests used:
ALDH3A1 = target: T1, ALDH3A1 (Homo sapiens, UniProt P30838); assay: Kinetic characteristics (Michaelis-Menten Km, Kcat) with ALDH3A1; assay type: biochemical; conditions: five minutes at 37° C., Tris buffer pH 7.5
T1 construct: purchased
T1 sequence (P30838 1-453): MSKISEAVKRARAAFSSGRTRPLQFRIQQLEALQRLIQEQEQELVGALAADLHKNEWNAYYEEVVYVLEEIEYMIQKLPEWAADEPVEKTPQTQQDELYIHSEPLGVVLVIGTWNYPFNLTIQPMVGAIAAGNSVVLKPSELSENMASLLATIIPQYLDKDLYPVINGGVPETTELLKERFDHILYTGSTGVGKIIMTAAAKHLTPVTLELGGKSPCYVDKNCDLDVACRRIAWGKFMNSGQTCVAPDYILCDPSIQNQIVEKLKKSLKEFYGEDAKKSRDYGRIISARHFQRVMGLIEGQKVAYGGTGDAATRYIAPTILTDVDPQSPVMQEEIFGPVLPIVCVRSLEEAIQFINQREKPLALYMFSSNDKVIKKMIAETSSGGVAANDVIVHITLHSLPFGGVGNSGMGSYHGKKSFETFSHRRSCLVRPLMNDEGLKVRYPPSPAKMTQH
Experimental: Human recombinant ALDH1A1/1A3/3A1 was purchased, and 100 mM of KCL, 2 mM of DTT, 1 mM of NAD(P), 10-100 nM of each ALDH, and 10-80 μM of each compound were mixed in Tris buffer (100 mM, pH 7.5), reacted for 30 minutes at 37° C., an equal amount of acetonitrile added, and the reaction stopped. The reaction solution was analyzed by UPLC/MS/MS (Waters). The UPCL chromatogram was carried out over five minutes at a flow rate of 800 μL/min by a linear gradient from 5% acetonitrile 0.01 M ammonium formate/water to 95% acetonitrile 0.01 M ammonium formate/water. An aldehyde-form and carboxylic acid-form probe were detected by the absorbance at a wavelength of 504 nm, and m/z of the MS spectrum at each peak was confirmed to agree with the expected m/z.
For the reaction, 100 mM of KCL, 2 mM of DTT, 1 mM of NAD(P), and five to six concentrations within the range of 10-100 nM of each ALDH and 0.1-80 μM of each probe were selected, mixed in Tris buffer (100 mM, pH 7.5), and reacted for five minutes at 37° C.; an equal amount of acetonitrile was added, and the reaction was stopped. Detection of the aldehyde-form/carboxylic acid-form probes was carried out using the same method as described above by UPLC/MS/MS. Km and Kcat were calculated by fitting the reaction rate at each probe concentration obtained to the Michaelis-Menten equation. A Kaleida Graph ver. 4.1 (Hulinks, Inc.) was used in fitting.
The Kcat ratio (Kcat of ALDH3A1/Kcat of ALDH1A1) was calculated for probe 1, probe 3, and probe 5 as an indicator of ALDH1A1/ALDH3A1 specificity because the probe reaction rate at the actual probe use concentration is believed to be close to Vmax since Km is relatively small (Table 5).

OE21 cells [1] = assay: Flow cytometry of OE21 cells (positive rate); assay type: cell-based
Experimental: Flow cytometry was carried out using probe 5 and OE21 cells. The cells were treated using trypsin, and the cell density was measured after passing the cells through a cell strainer (40 μm, Corning). […] After centrifuging for three minutes at 1500 rpm and removing the supernatant after the reaction, the cells were washed with chilled medium, centrifuged, and the medium was removed. The cells were again suspended in 100 μL of medium, and 4 μL of SYTOX (registered trademark) Red Dead Cell Stain (Thermo Fisher) was added. After standing for five minutes on ice, 150 μL of medium was added. […] Analysis was carried out using FACS Canto II (BD Biosciences). Excitation was provided by a blue laser (488 nm), and the brightness of probe 5 was detected in each cell by FITC channel (515-545 nm). About 30,000 cells were analyzed in each sample after removing doublets and removing dead cells. The positive gate was set in a range from near to above the upper limit of brightness in the negative control according to ALDEFLUOR assay, so that at most 3% of the cells were present within the gate in the negative control sample. Three independent tests were run.
ALDH3A1 was knocked down using small interference RNA (siRNA) to confirm that the positive group in flow cytometry using 0E21 cells and compound 5 was due to ALDH3A1 activity, and flow cytometry was conducted. Two siRNAs confirmed to be effective (Silencer (registered trademark) Select, s1243 and s1244) and a negative control (Silencer® negative control #1) were purchased from Thermo Fisher. Lipofectamine® RNAiMAX as transfection reagent and Opti-MEM® as diluent were purchased from Thermo Fisher. According to the instruction manual, 300 μL of siRNA-Lipofectamine complex was produced according to the instruction manual so that siRNA was 10 nM and Lipofectamine was 3%, and 250 μL thereof was mixed with 2.5 mL of OE21 cell suspension and sown in six-well dishes. The effect of knockdown was confirmed after six days by Western blotting (FIG. 6a).
Lysates were produced using negative control cells (ctrl) in which ALDH3A1 was not knocked down and cells (KD) in which ALDH3A1 was permanently knocked down. Western blotting was carried out, and pronounced knockdown of ALDH3A1 was confirmed (FIG. 9a). […] The top 25% (top) and bottom 25% (bottom) of fluorescent brightness were sorted out by FACS Aria II using a sample in which the positive and negative were well separated. The respective lysates were produced, Western blotting was carried out using the same, and the expression levels of ALDH3A1 were compared (FIG. 9c).

OE21 cells [2] = assay: SYTOX Red Dead Cell Stain assay during flow cytometry; assay type: cell-based; conditions: OE21 shRNA cells, probe 5 with MK-571, SYTOX Red Dead Cell Stain
Experimental: Flow cytometry was carried out using probe 5 and OE21 cells. The cells were treated using trypsin, and the cell density was measured after passing the cells through a cell strainer (40 μm, Corning). A quantity of 500 μL of a cell suspension to make 2.5-5×10^5/mL in medium containing 40 μM of probe 5 was prepared and cultured for 90 minutes at 37° C. After centrifuging for three minutes at 1500 rpm and removing the supernatant after the reaction, the cells were washed with chilled medium, centrifuged, and the medium was removed. The cells were again suspended in 100 μL of medium, and 4 μL of SYTOX (registered trademark) Red Dead Cell Stain (Thermo Fisher) was added. After standing for five minutes on ice, 150 μL of medium was added. A sample with CB7 (10 μM) added was used as a negative control. Analysis was carried out using FACS Canto II (BD Biosciences). Excitation was provided by a blue laser (488 nm), and the brightness of probe 5 was detected in each cell by FITC channel (515-545 nm). About 30,000 cells were analyzed in each sample after removing doublets and removing dead cells. The positive gate was set in a range from near to above the upper limit of brightness in the negative control according to ALDEFLUOR assay, so that at most 3% of the cells were present within the gate in the negative control sample. Three independent tests were run. […]

[3] = 50 μM probe 5, 200 μM MK-571, CB7 20 μM control

CCN(CCOCCNC(=O)c1ccc(-c2c3ccc(=O)cc-3oc3cc(O)ccc23)c(C)c1)c1ccc(C=O)cc1 [Probe 5, 2-(2-(N-ethyl-N-(4-formylphenyl)amino)ethoxy)ethyl-3-methyl-4-(6-hydroxyxanthen-3-on-9-yl)-benzamide]
Km (ALDH3A1): 3.49 ± 0.55 µM | Positive rate in flow cytometry (OE21 cells [1]; 40 μM probe 5, 90 minutes at 37° C., no MK-571, gate set with CB7 10 μM control): 10-15% | Positive rate in flow cytometry with MK-571, ALDH3A1 siRNA knockdown (OE21 cells [1]; [3]): around 10% | Positive rate in flow cytometry with MK-571, cells treated by negative control siRNA (OE21 cells [1]; [3]): about 90% | Positive rate in flow cytometry with MK-571 (OE21 cells [1]; 50 μM probe 5, MK-571 200 μM): about 90% | Dead cells / cell death due to the probe (OE21 cells [2]): virtually no dead cells were found
